From the supplement of paper PMC10307832

How the values were obtained:
Test in all cases: relative viability (nuclei count vs DMSO), 5 days (fraction); higher = more cells survive
[1] = compound: CC1=CC(=NN1)NC2=CC(=NC(=N2)/C=C/C3=CC=CC=C3)N4CCN(CC4)C + Cc1cc(Nc2cc(N3CCN(C)CC3)nc(Sc3ccc(NC(=O)C4CC4)cc3)n2)n[nH]1 [Tozasertib] (partner 0.1 µM)
How it was run: (§1)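 Relative viability was taken as the ratio of nuclei in treated wells to nuclei in vehicle wells. Lung cancer cell lines in 1536-well plates received compounds by pin tool one day after seeding, either one drug alone or a fixed anchor-drug dose plus five library-drug doses (not always all listed) in √10 steps. Nuclei were counted on 4× images after 5 days of treatment, and values are medians of duplicate plates.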

Obatoclax + Dasatinib = compound: COC1=CC(c2cc3ccccc3[nH]2)=N/C1=C\c1[nH]c(C)cc1C [Obatoclax] + Cc1nc(Nc2ncc(C(=O)Nc3c(C)cccc3Cl)s2)cc(N2CCN(CCO)CC2)n1 [Dasatinib] (partner 0.075 µM)
How it was run: as §1

Bortezomib + Pemetrexed = compound: CC(C)C[C@H](NC(=O)[C@H](Cc1ccccc1)NC(=O)c1cnccn1)B(O)O [Bortezomib] + Nc1nc2[nH]cc(CCc3ccc(C(=O)N[C@@H](CCC(=O)O)C(=O)O)cc3)c2c(=O)[nH]1 [Pemetrexed] (partner 0.2 µM)
How it was run: as §1

[2] = compound: CC1=CC(=NN1)NC2=CC(=NC(=N2)/C=C/C3=CC=CC=C3)N4CCN(CC4)C + Nc1nc2[nH]cc(CCc3ccc(C(=O)N[C@@H](CCC(=O)O)C(=O)O)cc3)c2c(=O)[nH]1 [Pemetrexed] (partner 0.2 µM)
How it was run: as §1

| Cell Line | relative viability ([1]; first compound 0.08 µM) | relative viability ([1]; first compound 0.253 µM) | relative viability ([1]; first compound 0.8 µM) | relative viability ([1]; first compound 2.53 µM) | relative viability ([1]; first compound 8 µM) | relative viability (Obatoclax + Dasatinib; first compound 0.01 µM) | relative viability (Obatoclax + Dasatinib; first compound 0.03162 µM) | relative viability (Obatoclax + Dasatinib; first compound 0.1 µM) | relative viability (Obatoclax + Dasatinib; first compound 0.3162 µM) | relative viability (Obatoclax + Dasatinib; first compound 1 µM) | relative viability (Bortezomib + Pemetrexed; first compound 0.0002 µM) | relative viability (Bortezomib + Pemetrexed; first compound 0.000632 µM) | relative viability (Bortezomib + Pemetrexed; first compound 0.002 µM) | relative viability (Bortezomib + Pemetrexed; first compound 0.006325 µM) | relative viability (Bortezomib + Pemetrexed; first compound 0.02 µM) | relative viability ([2]; first compound 0.08 µM) | relative viability ([2]; first compound 0.253 µM) | relative viability ([2]; first compound 0.8 µM) | relative viability ([2]; first compound 2.53 µM) | relative viability ([2]; first compound 8 µM) |
| --- | --- | --- | --- | --- | --- | --- | --- | --- | --- | --- | --- | --- | --- | --- | --- | --- | --- | --- | --- | --- |
| NCI-H2228 | 0.193 | 0.214 | 0.158 | 0.086 | 0.0648 | 0.499 | 0.595 | 0.571 | 0.351 | 0.148 | 0.369 | 0.356 | 0.275 | 0.112 | 0.0808 | 0.306 | 0.309 | 0.276 | 0.0818 | 0.055 |
| NCI-H2342 | 0.527 | 0.503 | 0.438 | 0.376 | 0.324 | 0.365 | 0.303 | 0.347 | 0.285 | 0.302 | 0.801 | 0.783 | 0.739 | 0.752 | 0.712 | 0.642 | 0.81 | 0.819 | 0.769 | 0.473 |
| NCI-H2347 | 0.501 | 0.565 | 0.518 | 0.461 | 0.257 | 0.305 | 0.281 | – | 0.308 | 0.324 | 0.418 | 0.43 | 0.413 | 0.417 | 0.357 | 0.418 | 0.415 | 0.447 | 0.397 | 0.379 |
| NCI-H2405 | 0.751 | 0.72 | 0.674 | 0.421 | 0.185 | 0.218 | 0.197 | – | 0.205 | 0.22 | 1.02 | 0.792 | 1.11 | 0.121 | 0.14 | 1.02 | 0.979 | 1.04 | 0.503 | 0.162 |
